Laboratory results as given in patent US20250066423A1, “SESTRIN-MAPK COMPLEX INHIBITORS” (Sentcell Ltd, priority 2021, published 2025).
Peptide text beside a SMILES is read from it.

Key:
recombinant sestrin 3 = target: T1, recombinant sestrin 3 (Homo sapiens, UniProt P58005); assay: Streptavidin pull-down of biotinylated DOS46L with flag recombinant sestrins; type: binding; settings: in vitro
T1 sequence (P58005 1-492): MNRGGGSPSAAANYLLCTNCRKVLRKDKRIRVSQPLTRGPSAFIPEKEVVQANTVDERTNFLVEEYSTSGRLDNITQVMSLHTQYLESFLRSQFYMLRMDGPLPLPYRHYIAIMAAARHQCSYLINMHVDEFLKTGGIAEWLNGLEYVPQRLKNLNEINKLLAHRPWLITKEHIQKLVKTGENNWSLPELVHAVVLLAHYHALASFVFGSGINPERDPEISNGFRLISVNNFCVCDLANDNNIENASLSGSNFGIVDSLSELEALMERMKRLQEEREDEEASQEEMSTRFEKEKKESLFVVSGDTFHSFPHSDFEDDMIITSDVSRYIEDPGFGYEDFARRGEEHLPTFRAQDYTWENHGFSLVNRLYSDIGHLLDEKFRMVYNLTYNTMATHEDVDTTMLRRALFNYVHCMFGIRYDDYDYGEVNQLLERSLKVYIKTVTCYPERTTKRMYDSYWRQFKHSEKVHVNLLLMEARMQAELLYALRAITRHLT
Protocol: However, it should be considered that direct binding is not a pre-requisite for DOS sestrin inhibitory function.
(A) Biotinylated DOS46L was mixed with flag recombinant Sestrins, immunoprecipitated with streptavidin and immunoblotted with flag Sestrins. […] Representative images from three experiments are shown. […] (D) DOS46L binds to the entire sMAC complex in CD4 T cells. CD4+ T cells were isolated from PBMCs from healthy donors and treated with biotinylated DOS46L compound (10 uM) for 4 hours. Cells were harvested for immunoprecipitation analysis.

[1] = system: PBMCs from elderly donors, heat-inactivated SARS-COV2; assay: COVID-specific antibodies in PBMCs from elderly donors (ELISA); type: cell-based, human; settings: PBMCs from elderly donors (75-95 years), 10 uM
H1N1 = assay: Autoptic lung analysis and viral clearance (qPCR of viral protein PA) in lungs of old mice; settings: mouse, in vivo
[2] = system: CD95+ CD62L+ CD44− CD4+ memory T cells; type: in vivo, mice; settings: examined up to 8 weeks
[3] = system: Breast cancer cell line (MCF-7); assay: Cancer cell death by FACS live-dead staining; type: cell-based; settings: 20 uM, 48 hours
Protocol: (§1) (Left) Immortalized paediatric neuroblastoma cell line (sh-sy5y) was treated at different concentrations of DOS46L and DOS144D (from 1 uM to 20 uM) for 48 hours, then analysed by FACS with live-dead staining. (Right) Breast cancer cell line (MCF-7) was treated at the fixed concentration of DOS46L and DOS144D (20 uM) for 48 hours, then analysed by FACS with live-dead dye staining. UN depicts untreated controls. Results of triplicate cultures are shown.

[4] = system: paediatric neuroblastoma cell line (sh-sy5y); assay: Cancer cell death by FACS live-dead staining; type: cell-based; settings: 1 uM to 20 uM, 48 hours
Protocol: as §1

[5] = system: T cells (senescent CD3+ CD4+ CD27− CD28− population); settings: DOS-FITC 10 μM, 4 hrs
Protocol: (A-B) CD4+ T cells were isolated from peripheral blood mononuclear cells (PBMCs) from healthy donors and treated with DOS compounds. (A) Representative confocal images of CD4+ T cells stained with DOS-FITC and CD3-AF594. (B) Quantification of DOS46L penetration by flow cytometry in CD4+ CD27-CD28-cells (Tsen) and in CD4+CD27+CD28+ (Terl).
Purified T cells were plated at the concentration 1*10^6 cell/well in 24 well plate • 2. Cells were treated with 10 μM of DOS-FITC for 4 hrs • 3. Then collected and centrifuged at 500 g for 5 mins • 4. Washed two times with ice-cold PBS • 5. Cells were resuspended in 200 ul of PBS and plated in a pre-treated coverslip with poly-lysine • 6. Cells were fixed with 4% of formaldehyde in ice for 20 mins • 7. Washed three times with PBS • 8. Blocked with PBS-BSA 5% • 9. Cells were then incubated with primary antibody (anti-CD3 1:100) overnight at 4 C • 10. Washed three times with PBS • 11. Then incubated with secondary antibody (anti-mouse conjugated with AF-594; 1:250) for 1 hr at room temperature • 12. Washed three times with PBS 13. Cells were permeabilized with Triton 0.25% in PBS for 2 mins • 14. Followed incubation with antibody anti-KDEL (Abcam) and anti-sestrin 2 (Gentex) diluted 1:100 at 4 C over-night • 15. Washed for three times with PBS • 16. […]

CC[C@H](C)[C@@H]1NC(=O)[C@H](Cc2ccccc2)NC(=O)[C@H](C)NC(=O)[C@H](C(C)C)NC(=O)[C@@H]2CCCN2C1=O [DOS46L] (cyclo(AFIPV))
direct binding to recombinant sestrin 3 (recombinant sestrin 3): does not directly bind
COVID-specific IgG antibodies [1]: stimulation of COVID-specific antibodies
lung necrosis (H1N1): protection from lung necrosis
stem-like memory T cell generation [2]: permanent stem-like generation
cancer cell death [3]: induction of cancer cell death
cancer cell death [4]: induction of cancer cell death
cell penetration [5]: able to penetrate T cells
